In patent US20250381180A1, “METHODS OF TREATING OR PREVENTING OVERACTIVE BLADDER SYNDROME” (Purdue Pharma L.P., priority 2022, published 2025):
“Also recorded” adds a separate entry of the source.

How the values were obtained:
[1] = tested on: rhythmic bladder contractions (RBC) in anesthetized female rats; experiment: Isovolumetric model: rhythmic bladder contractions (RBC), cystometry; format: in vivo, rat; conditions: for Inhibition time: after i.v.; for RBC amplitude, basal / RBC frequency, basal: basal period −30/0 min before i.v. administration, group mean
Source text: In rats, under isovolumetric condition, bladder distension induced rhythmic bladder contractions (RBC) (Aizawa et al, (2015) Effects of L-arginine, mirabegron, and oxybutynin on the primary bladder afferent nerve activities synchronized with reflexic, rhythmic bladder contractions in the rat. Neurourology & Urodynamics 34:368-374). This isovolumetric model allows the evaluation of compound on RBC. It is a closed system where the bladder is slowly infused through a urethral catheter with saline until the occurrence of spontaneous rhythmic bladder contractions.
Test substance effects were compared to that of the reference substance, tolterodine, an […], marketed for overactive bladder in humans.
Protocol: • Animals were anesthetized with urethane (i.p.). • Ureters were ligated and sectioned close to the kidneys. • Intravesical catheter was inserted into the bladder though the urinary meatus. • Urinary meatus was closed. • A catheter was inserted into the jugular vein for compound administration. • Bladder was filled with saline until the occurrence of RBC. • After 30 min basal period, compounds were administered as described below. • The effect of the test substances was followed by 1-hour post administration.
Rats were anesthetized with an intraperitoneal administration of urethane (1 g/kg). The ureters were ligated and sectioned close to the kidneys. A catheter (0.30 and 0.70 mm of inner and outer diameters, respectively) was inserted through the urinary meatus into the bladder before urethral ligature. Another catheter (0.58 and 0.96 mm of inner and outer diameters, respectively) was inserted into the jugular vein for intravenous (i.v.) administration.
For all group, animals were treated by i.v. route (1 mL/kg) (slow bolus) after the basal period.
The vesical catheter was connected via a T-tube to a strain gauge (to measure intra-vesical pressure) and to a syringe. Isovolumetric bladder contractions were induced by stepwise injections of physiological saline at room temperature (100 μL every 5 min) until stable RBC occurred. Vesical pressure was continuously recorded. After a 30 min control period (basal values), substances or vehicle were i.v. administered. The effects of substances were followed during 60 min after administration. At the end of the experiments, animals were sacrificed by cervical dislocation.
The following parameters were analyzed: • Amplitude of RBC (mmHg) • Frequency of RBC (number/30 min) • Time of inhibition (sec)
The % variation from the basal values were calculated for RBC frequency and amplitude.
Statistical analysis and graphs were performed using GraphPad Prism® (GraphPad Software Inc., La Jolla, CA, USA). A p value <0.05 was accepted for statistical significance.

conscious SCI rats = experiment: Cystometric parameters in conscious spinal cord injury (SCI) rats; format: in vivo, rat
Protocol: Test substance effects were compared to those of the reference substance, the β3-adrenoceptor agonist mirabegron, marketed for overactive bladder.
• At W-5, spinal cord injury was performed at T8 level as described below. • Over W-5, rats were treated daily with gentamicin. • Over W-5 and W-4, bladder was emptied manually once a day. • From W-5 to W0, animals were weighed once per week. • At D-2 (W0), implantation of catheters was performed under isoflurane anaesthesia as described below. • At D0 (W0), cystometry was performed
Rats were anesthetized with isoflurane (3%). Body temperature was constantly maintained at 37° C. throughout the surgery by placing animals on a thermo-regulated hot plate. A laminectomy was performed and the spinal cord was sectioned with microscissors at T8 level. Care was taken to assure that the section was complete by verifying that a slight retraction of the two segments occurred. Then the muscle was sutured and the skin fixed with staples. The scar was cleaned by Vetedine. For the Sham group, the same surgery was performed without section of the spinal cord.
The urinary bladder was squeezed once a day for 14 days with a gentle massage of the abdomen until restoration of the micturition reflex. In addition, they were administered intramuscularly daily for one week with gentamicin (2 mg/mL, 0.2 ml/rat). Animals were euthanized if they reached humane endpoints: weight loss of greater than 20% of their body weight and/or abnormal behavioral changes indicating presence of pain and distress (prostration, self-mutilation, aggressiveness).
Rats were anesthetized with isoflurane (3%). Body temperature was constantly maintained at 37° C. throughout the surgery by placing animals on a thermo-regulated hot plate. A polyethylene catheter (0.58 and 0.96 mm of inner and outer diameters, respectively) was implanted in the bladder through the dome for intravesical pressure recording. Another catheter (0.58 and 0.96 mm of inner and outer diameters, respectively) was implanted in the stomach for intra-gastric administration. Catheters were exteriorized at the scapular level. After surgery, each rat was housed individually up to the end of the protocol with free access to food and water.
Animals were held under partial restraint in a restraining device. Saline was infused into the bladder at a constant flow rate of 2 or 6 mL/h for sham or SCI rats, respectively. After at least 45 min (3 complete micturition cycles corresponding to basal values), test substances were administered by intra-gastric route. Then, intravesical pressure was recorded for 90 min.
The following cystometric parameters were analyzed (see FIG. 10): • Amplitude of micturition (AM, mmHg). • Threshold pressure (ThP, mmHg). • Intercontraction interval (ICI, sec): time between basal pressure and ThP. ICI was not presented due to different infusion rate in sham and SCI rats. ICI was only analyzed to calculate the bladder capacity. • Bladder capacity (BC, mL) BC=ICI×infusion rate. • Amplitude of non voiding contractions (NVC, mmHg) • Frequency of NVC (number per min).
For each cystometric parameter and for each time period, the comparisons were performed as described below: • Basal values of each cystometric parameter of Sham/Vehicle and SCI/Vehicle groups were compared using unpaired student t test • Basal values of each cystometric parameter of all SCI groups were compared using one-way ANOVA or Kruskal-Wallis test • The 3 interval periods of 30 min post treatment of each cystometric parameter within the same group were compared to corresponding basal values using one-way ANOVA with repeated measures or Friedman test followed by Dunnett's or Dunn's post-test, respectively. • The 3 interval periods of 30 min post treatment of each cystometric parameter were compared between all SCI groups using one-way ANOVA or Kruskal Wallis test followed by Holm-Sidak's or Dunn's post-test versus Vehicle, respectively.

[2] = 0/60 min after i.v., Cpd (IA) 3 mg/kg (n=8), tolterodine 1 mg/kg, mean
[3] = 0/60 min after i.v., Cpd (IA) 3 mg/kg, tolterodine 1 mg/kg, mean
[4] = 0/60 min after i.v., Cpd (IA) 3 mg/kg, tolterodine 1 mg/kg, mean, listed as compound of formula (IA)
[5] = listed as compound of formula (IA)
[6] = i.v., Cpd (IA) 3 mg/kg, tolterodine 1 mg/kg, vs basal
[7] = i.v., Cpd (IA) 3 mg/kg, tolterodine 1 mg/kg, vs vehicle
[8] = i.g., Cpd (IA) 30 mg/kg, mirabegron 10 mg/kg

O=C(O)c1nc2ccccc2n([C@H]2C[C@H]3CCC[C@@H](C2)N3C2CC3CCCC(C3)C2)c1=O (stereo partly shown) [Cpd (IA)]
RBC amplitude, % variation from basal [1, 2]: 1.25%
RBC amplitude, treated period [1, 2]: 27.57 mmHg
RBC frequency, % variation from basal [1, 3]: ~88.57%
RBC frequency, treated period [1, 3]: 3.05 nb of RBC/30 min
RBC frequency, % variation from basal [1, 4]: -88.57±3.68%
RBC frequency, treated period [1, 4]: 3.05±1.02 nb of RBC/30 min
Inhibition time ([1]; Cpd (IA) 3 mg/kg, tolterodine 1 mg/kg, mean): 2860.51 s
Inhibition time ([1]; Cpd (IA) 3 mg/kg, tolterodine 1 mg/kg, mean, listed as compound of formula (IA)): 2860.51 ± 272.38 s
RBC amplitude, basal [1]: 29.49 mmHg
RBC frequency, basal [1]: 25.90 nb of RBC/30 min
RBC amplitude, basal [1, 5]: 29.49±2.46 mmHg
RBC frequency, basal [1, 5]: 25.90±1.36 nb of RBC/30 min
bladder afferent activity ([1]; conclusion of Example 1): significantly decreased
RBC amplitude, effect versus basal [1, 6]: No significant effect
RBC frequency, effect versus basal [1, 6]: significantly decreased
RBC amplitude (% variation), effect versus vehicle [1, 7]: did not significantly modify
RBC frequency (% variation), effect versus vehicle [1, 7]: significantly decreased
time of inhibition, effect versus vehicle [1, 7]: significantly increased
% of variation from basal values of BC (conscious SCI rats; Cpd (IA) 30 mg/kg i.g., 0-30 min interval, mean±s.e.m., vehicle −0.4±15): −35±7%
AM (amplitude of micturition), effect versus basal (conscious SCI rats; [8]): did not significantly modify
AM (mmHg and % variation), effect versus vehicle (conscious SCI rats; [8]): not significantly modified
BC expressed in % variation from basal, effect versus vehicle (conscious SCI rats; [8]): significantly decreased BC for the 0-30 min post-administration interval period; also recorded: significantly reduced BC, compared to vehicle, for the 0-30 min post-administration interval period
BC expressed in mL, effect versus vehicle (conscious SCI rats; [8]): no significant difference
NVC amplitude (mmHg or % variation), effect versus vehicle (conscious SCI rats; [8]): not significantly modified
NVC amplitude, effect versus basal (conscious SCI rats; [8]): significantly decreased NVC amplitude for the 30-60 and 60-90 min post-administration interval periods
NVC frequency (NVC/min and % variation), effect versus vehicle (conscious SCI rats; [8]): not significantly modified
NVC frequency, effect versus basal (conscious SCI rats; [8]): significantly decreased NVC frequency for the 0-30 and 60-90 min interval periods
ThP (mmHg and % variation), effect versus vehicle (conscious SCI rats; [8]): not significantly modified
ThP (threshold pressure), effect versus basal (conscious SCI rats; [8]): no significant effect
BC (bladder capacity), effect versus basal (conscious SCI rats; i.g., Cpd (IA) 30 mg/kg, mirabegron 10 mg/kg, 30-min interval periods to 90 min): significantly decreased BC for the 0-30 and 30-60 min post-administration interval periods
NVC frequency, effect versus basal (conscious SCI rats; i.g., Cpd (IA) 30 mg/kg, mirabegron 10 mg/kg, listed as compound of formula (IA)): significantly decreased NVC frequency compared to basal value for the 0-30 and 60-90 min post-administration interval periods
